Laboratory results: ChEMBL document CHEMBL4715849, “Recent Progress in the Discovery of Antifungal Agents Targeting the Cell Wall” (J Med Chem, 2020)
pIC50, pKi: −log10 of the molar value. ≈ marks a conversion by molar mass, not a printed value. Numbered stars: 1 amine (or outer) side, 2 acyl side, 3 side chain; on linkers, the order of the positions; unused ones are H or OH. Bridge positions count the residues as written; N and C are the ends. Square brackets hold non-standard residues; d marks the D form. Peptide text beside a SMILES is read from it. * marks the point of attachment. hTyr(3S-OH,4S-OH,3'-OSO3H) = N[C@H](C(=O)O)[C@H](O)[C@@H](O)c1ccc(O)c(OS(=O)(=O)O)c1; Orn(4R-OH,5R-OH) = O=C([C@H](C[C@@H](O)[C@@H](O)N[*:3])N[*:1])[*:2]; Pro(3S-OH,4S-Me) = C[C@H]1CN[C@H](C(=O)O)[C@H]1O; X1 = CCCCCOc1ccc(-c2cc(-c3ccc(C(=O)*)cc3)no2)cc1; Gln(3R-OH) = NC(=O)C[C@@H](O)[C@H](N)C(=O)O; Hyp = O=C(O)[C@@H]1C[C@@H](O)CN1

What was measured:
Erythrocyte = experiment: Hemolytic activity in ICR mouse red blood cells incubated for 2 hrs by visual observation; type: ADME, cell-based
[1] = Inhibition of Candida albicans GFA1 using D-Fru6P and L-glutamine as substrate by absorbance method
Candida albicans [2] = experiment: Antifungal activity against Candida albicans ATCC 10231 by CLSI-based serial dilution method; type: functional
Candida albicans [3] = experiment: Antifungal activity against Candida albicans A9540 infected in iv dosed ICR mouse assessed as protection against fungus-induced lethal infection dosed once immediately following fungal challenge and measured on day 20 post infection; type: functional; settings: 480 h, time 20 day, read-out: PD50
Nakaseomyces glabratus [4] = experiment: Antifungal activity against Candida glabrata MY1381 by CLSI method; type: functional
Clavispora lusitaniae = experiment: Antifungal activity against Candida lusitaniae MY1396 by CLSI method; type: functional
Candida albicans [5] = experiment: Antifungal activity against Candida albicans Ca1055 by CLSI method; type: functional
Candida albicans [6] = experiment: Antifungal activity against Candida albicans Ca2323/ORF6.945 by CLSI method; type: functional
Candida parapsilosis [7] = experiment: Antifungal activity against Candida parapsilosis ATCC22019 by CLSI method; type: functional; settings: Lodderomyces parapsilosis
Candida albicans [8] = experiment: Antifungal activity against Candida albicans ATCC 38248 incubated for 48 to 72 hrs by broth microdilution method; type: functional; settings: time 48-72 hrs
Pichia kudriavzevii [9] = experiment: Antifungal activity against Candida krusei incubated for 48 to 72 hrs by broth microdilution method; type: functional; settings: time 48-72 hrs
Candida albicans [10] = experiment: Antifungal activity against Candida albicans ATCC 44373 incubated for 48 to 72 hrs by broth microdilution method; type: functional; settings: time 48-72 hrs
Candida albicans [11] = experiment: Antifungal activity against Candida albicans ATCC 10231 incubated for 48 to 72 hrs by broth microdilution method; type: functional; settings: time 48-72 hrs
[12] = system: Meyerozyma guilliermondii; experiment: Antifungal activity against Candida guilliermondii incubated for 48 to 72 hrs by broth microdilution method; type: functional; settings: time 48-72 hrs
Candida albicans [13] = experiment: Antifungal activity against Candida albicans ATCC 200955 incubated for 48 to 72 hrs by broth microdilution method; type: functional; settings: time 48-72 hrs
Chitin synthase 1 = Chitin synthase 1 (Candida albicans, UniProt P23316); experiment: Inhibition of Chitin synthase 1 in Candida albicans (chs3del::hisG/chs3del::hisG) microsomes using UDP-[U14C]-GlcNac as substrate; design: species or system Microsome
Chain of Chitin synthase 1 (P23316 whole entry): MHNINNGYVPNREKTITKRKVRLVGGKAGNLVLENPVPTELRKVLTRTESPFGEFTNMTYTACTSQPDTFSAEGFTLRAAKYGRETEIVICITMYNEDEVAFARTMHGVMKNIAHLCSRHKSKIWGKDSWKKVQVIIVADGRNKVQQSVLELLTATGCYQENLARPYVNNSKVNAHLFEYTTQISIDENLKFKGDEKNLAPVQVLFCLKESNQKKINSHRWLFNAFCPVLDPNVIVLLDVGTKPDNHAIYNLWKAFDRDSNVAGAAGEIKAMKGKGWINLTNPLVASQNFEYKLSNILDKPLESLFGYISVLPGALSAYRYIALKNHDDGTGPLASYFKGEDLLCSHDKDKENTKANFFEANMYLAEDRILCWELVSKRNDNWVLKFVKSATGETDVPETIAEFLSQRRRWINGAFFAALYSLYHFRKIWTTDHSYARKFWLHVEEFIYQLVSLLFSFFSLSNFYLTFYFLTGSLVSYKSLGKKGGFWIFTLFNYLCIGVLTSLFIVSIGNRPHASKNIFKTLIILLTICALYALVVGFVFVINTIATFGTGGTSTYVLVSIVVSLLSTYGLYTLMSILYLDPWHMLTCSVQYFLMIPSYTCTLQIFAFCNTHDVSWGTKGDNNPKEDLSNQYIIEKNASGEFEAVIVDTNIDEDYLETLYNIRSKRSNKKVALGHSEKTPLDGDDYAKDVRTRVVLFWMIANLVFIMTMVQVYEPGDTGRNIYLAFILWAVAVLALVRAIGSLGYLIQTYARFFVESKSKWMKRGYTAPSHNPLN

Chitin synthase 2 = Chitin synthase 2 (Candida albicans, UniProt P30572); experiment: Inhibition of Chitin synthase 2 in Candida albicans (chs3del::hisG/chs3del::hisG) microsomes using UDP-[U14C]-GlcNac as substrate; design: species or system Microsome
Chain of Chitin synthase 2 (P30572 whole entry): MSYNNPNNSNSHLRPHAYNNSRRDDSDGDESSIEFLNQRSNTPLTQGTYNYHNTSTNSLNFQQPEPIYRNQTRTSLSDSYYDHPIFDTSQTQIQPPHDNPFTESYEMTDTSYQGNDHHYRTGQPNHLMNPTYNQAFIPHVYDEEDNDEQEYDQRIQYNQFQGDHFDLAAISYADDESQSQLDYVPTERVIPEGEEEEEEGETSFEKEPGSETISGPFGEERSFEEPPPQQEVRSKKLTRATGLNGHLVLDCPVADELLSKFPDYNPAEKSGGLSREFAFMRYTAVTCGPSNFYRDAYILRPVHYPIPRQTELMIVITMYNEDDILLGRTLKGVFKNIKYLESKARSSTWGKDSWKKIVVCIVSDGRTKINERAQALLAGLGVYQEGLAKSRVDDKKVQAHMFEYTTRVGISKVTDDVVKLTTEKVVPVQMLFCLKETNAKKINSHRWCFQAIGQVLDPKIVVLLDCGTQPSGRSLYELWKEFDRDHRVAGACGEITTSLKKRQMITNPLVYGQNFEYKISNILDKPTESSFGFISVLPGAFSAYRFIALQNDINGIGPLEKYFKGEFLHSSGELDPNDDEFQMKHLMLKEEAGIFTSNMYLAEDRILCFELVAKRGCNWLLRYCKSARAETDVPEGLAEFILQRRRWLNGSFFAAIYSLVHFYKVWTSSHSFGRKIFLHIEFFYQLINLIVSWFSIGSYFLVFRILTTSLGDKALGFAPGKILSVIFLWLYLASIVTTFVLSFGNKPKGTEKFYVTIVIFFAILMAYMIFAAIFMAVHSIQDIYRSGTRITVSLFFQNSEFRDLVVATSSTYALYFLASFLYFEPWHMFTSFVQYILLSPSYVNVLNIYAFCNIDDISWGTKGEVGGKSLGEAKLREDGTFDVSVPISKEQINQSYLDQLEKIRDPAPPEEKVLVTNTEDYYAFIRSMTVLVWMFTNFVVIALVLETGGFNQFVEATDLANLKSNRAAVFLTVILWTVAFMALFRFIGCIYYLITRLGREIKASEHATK

Candida tropicalis = experiment: Antifungal activity against Candida tropicalis incubated for 24 hrs by CLSI method; type: functional
Aspergillus fumigatus = experiment: Antifungal activity against Aspergillus fumigatus CF1083 infected in iv dosed mouse model of pulmonary aspergillosis administered once daily for 4 days and measured on day 14; type: functional; settings: 336 h, time 14 day
Candida parapsilosis [14] = experiment: Antifungal activity against Candida parapsilosis incubated for 24 hrs by CLSI method; type: functional; settings: Lodderomyces parapsilosis
[15] = Inhibition of Beta-1,3-glucan synthase in wild type Schizosaccharomyces pombe
[16] = Inhibition of Beta-1,3-glucan synthase in Schizosaccharomyces pombe pbr1-6
[17] = Inhibition of Cryptococcus neoformans (H99) 1,3-beta-glucan synthase component FKS1 using UDP-[14C]glucose as substrate; design: species or system Cryptococcus neoformans var. grubii H99
Candida albicans [18] = experiment: Antifungal activity against Candida albicans incubated for 24 hrs by CLSI method; type: functional
Cryptococcus neoformans = experiment: Antifungal activity against Cryptococcus neoformans H99 incubated for 72 hrs by CLSI M27A method; type: functional; settings: var grubii H99
[19] = Inhibition of Beta-1,3-glucan synthase in Schizosaccharomyces pombe pbr1-8
Pichia kudriavzevii [20] = experiment: Antifungal activity against Candida krusei incubated for 24 hrs by CLSI method; type: functional
Nakaseomyces glabratus [21] = experiment: Antifungal activity against Candida glabrata incubated for 24 hrs by CLSI method; type: functional
Endochitinase A1 = Endochitinase A1 (Aspergillus fumigatus, UniProt Q873Y0); experiment: Inhibition of Aspergillus fumigatus chiA1 (Arg28 to His337) expressed in Pichia pastoris incubated for 70 mins using 4MU-NAc3 as substrate by fluorescence method
Chain of Endochitinase A1 (Q873Y0 whole entry): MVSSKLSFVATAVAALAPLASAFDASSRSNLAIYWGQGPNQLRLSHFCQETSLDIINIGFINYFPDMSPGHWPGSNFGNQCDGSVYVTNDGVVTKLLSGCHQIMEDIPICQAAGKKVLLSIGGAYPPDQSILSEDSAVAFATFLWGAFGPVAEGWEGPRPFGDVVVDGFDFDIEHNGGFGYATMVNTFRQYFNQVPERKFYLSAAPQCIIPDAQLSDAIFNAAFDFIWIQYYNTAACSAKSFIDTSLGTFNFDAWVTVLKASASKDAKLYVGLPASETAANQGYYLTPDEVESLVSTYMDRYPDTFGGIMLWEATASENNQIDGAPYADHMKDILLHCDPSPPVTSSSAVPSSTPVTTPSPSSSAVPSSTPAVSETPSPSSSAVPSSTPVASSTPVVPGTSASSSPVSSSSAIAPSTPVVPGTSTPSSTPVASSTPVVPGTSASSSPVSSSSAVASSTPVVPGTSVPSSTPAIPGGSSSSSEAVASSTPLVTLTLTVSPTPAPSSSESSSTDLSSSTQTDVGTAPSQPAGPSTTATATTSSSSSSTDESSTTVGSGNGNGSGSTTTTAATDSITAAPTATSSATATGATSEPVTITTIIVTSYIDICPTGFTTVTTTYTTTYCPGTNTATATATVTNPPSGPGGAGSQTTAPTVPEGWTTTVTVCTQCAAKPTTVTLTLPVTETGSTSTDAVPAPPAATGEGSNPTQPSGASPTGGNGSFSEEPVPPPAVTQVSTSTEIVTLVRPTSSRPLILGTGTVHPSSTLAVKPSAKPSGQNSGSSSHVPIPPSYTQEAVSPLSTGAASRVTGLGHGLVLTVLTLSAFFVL

[22] = Inhibition of Saccharomyces cerevisiae CTS1 incubated for 70 mins by fluorescence method
[23] = Inhibition of Candida albicans GFA1 using D-Fru6P and L-glutamine as substrate incubated for 30 mins by Elson-Morgan method
[24] = Elimination half life life in iv dosed human; settings: in vivo

C[C@@H]1[C@H](O)[C@@H](C)/C=C/C=C/C=C/C=C/C=C/C=C/C=C/[C@H](O[C@@H]2O[C@H](C)[C@@H](O)[C@H](N)[C@@H]2O)C[C@@H]2O[C@](O)(C[C@@H](O)C[C@@H](O)[C@H](O)CC[C@@H](O)C[C@@H](O)CC(=O)O[C@H]1C)C[C@H](O)[C@H]2C(=O)O [AMPHOTERICIN B]
MHC (Erythrocyte): 8 µg/mL

CC(=O)N[C@H]1C(O)O[C@H](CS(=O)(=O)O)[C@@H](O)[C@@H]1O (stereo not given in full)
pIC50 [1]: < 2.30 | MIC (Candida albicans [2]): 500 µg/mL (≈ 1750 µM)

CN[C@@H]1[C@H](O[C@@H]2OC[C@@H](O)[C@H](O)[C@H]2O)[C@@H](O)[C@H](O[C@H]2c3cc(C)c(C(=O)N[C@H](C)C(=O)O)c(O)c3-c3c(cc4c(c3O)C(=O)c3cc(OC)cc(O)c3C4=O)[C@@H]2O)O[C@@H]1C [PRADIMICIN A]
ED50 (Candida albicans [3]): 8.9 mg/kg

COc1ccc(NC(=O)COc2cccc(OCC(C)C)c2)cc1
MIC (Nakaseomyces glabratus [4]): 4 µg/mL (≈ 12.1 µM) | MIC (Clavispora lusitaniae): 4 µg/mL (≈ 12.1 µM) | MIC (Candida albicans [5]): 4 µg/mL (≈ 12.1 µM) | MIC (Candida albicans [6]): 4 µg/mL (≈ 12.1 µM) | MIC (Candida parapsilosis [7]): 2 µg/mL (≈ 6.07 µM)

N[C@H]1C(O)O[C@H](CS(=O)(=O)O)[C@@H](O)[C@@H]1O (stereo not given in full)
pIC50 [1]: 4.10 | MIC (Candida albicans [2]): 1000 µg/mL (≈ 4110 µM)

COc1ccc2c(Cc3ccc(C(C)(C)C)cc3)c3[n+](cc2c1OC)CCc1cc2c(cc1-3)OCO2
MIC (Candida albicans [8]): 1.56 µg/mL | MIC (Pichia kudriavzevii [9]): 1.56 µg/mL | MIC (Candida albicans [10]): 1.56 µg/mL | MIC (Candida albicans [11]): 1.56 µg/mL | MIC [12]: 6.25 µg/mL | MIC (Candida albicans [13]): 1.56 µg/mL | pIC50 (Chitin synthase 1): 4.66 | pIC50 (Chitin synthase 2): 4.66

CC[C@H](C)C[C@H](C)CCCCCCCCC(=O)N[C@H]1C[C@@H](O)[C@@H](NCCN)NC(=O)[C@@H]2[C@@H](O)CCN2C(=O)[C@H]([C@H](O)CCN)NC(=O)[C@H]([C@H](O)[C@@H](O)c2ccc(O)cc2)NC(=O)[C@@H]2C[C@@H](O)CN2C(=O)[C@H]([C@@H](C)O)NC1=O [CASPOFUNGIN]
MIC90 (Candida tropicalis): 1 µg/mL (≈ 0.915 µM) | ED50 (Aspergillus fumigatus): > 15 mg/kg | MIC90 (Candida parapsilosis [14]): 0.5 µg/mL (≈ 0.457 µM) | IC50 [15]: 0.3 µg/mL (≈ 0.274 µM) | IC50 [16]: 150 µg/mL (≈ 137 µM) | pKi [17]: 6.77 | MIC90 (Candida albicans [18]): 2 µg/mL (≈ 1.83 µM) | MIC (Cryptococcus neoformans): 16 µg/mL (≈ 14.6 µM) | IC50 [19]: 250 µg/mL (≈ 229 µM) | MIC90 (Pichia kudriavzevii [20]): 1 µg/mL (≈ 0.915 µM) | MIC90 (Nakaseomyces glabratus [21]): 16 µg/mL (≈ 14.6 µM)

Cc1ccc(OCC(O)CNC2Cc3ccccc3C2)cc1C (stereo not given)
pIC50 (Endochitinase A1): 5.04 | pIC50 [22]: 5.62

N[C@@H](CO)[C@@H](O)[C@H](O)[C@H](O)CS(=O)(=O)O
pIC50 [23]: 3.89 | MIC (Candida albicans [2]): 1000 µg/mL (≈ 4080 µM)

CCCCCOc1ccc(-c2cc(-c3ccc(C(=O)N[C@H]4C[C@@H](O)[C@@H](O)NC(=O)[C@@H]5[C@@H](O)[C@@H](C)CN5C(=O)[C@H]([C@H](O)CC(N)=O)NC(=O)[C@H]([C@H](O)[C@@H](O)c5ccc(O)c(OS(=O)(=O)O)c5)NC(=O)[C@@H]5C[C@@H](O)CN5C(=O)[C@H]([C@@H](C)O)NC4=O)cc3)no2)cc1 [MICAFUNGIN] (X1-[Orn(4R-OH,5R-OH)]T[Hyp][hTyr(3S-OH,4S-OH,3'-OSO3H)][Gln(3R-OH)][Pro(3S-OH,4S-Me)]; lactam 1-C)
half-life [24]: 10 h
